Source: patent publication US9657062B2, “Ghrelin analogues” (Zealand Pharma A/S, priority 2012, dated 2017)
*1 amine or outer side, *2 acyl side, *3 side chain or, on linkers, in order; H or OH if unused. Where a SMILES comes first, the peptide text is derived from it. [ ]: non-standard residue; d: D form. The star is where a group is joined. Cmp = 4-carboxymethyl-piperidine, O=C(CC1CCN([*:1])CC1)[*:2]; Octanoyl = CCCCCCCC(=O)*; Dap = NC[C@H](N)C(=O)O; Octyl = CCCCCCCC*

Tests used:
[1] = system: normal chow-fed C57BL/6J male mice; assay: Effect on food intake in normal mice (HM-2 automated monitoring); assay type: in vivo, mouse; settings: for Accumulated FI at 6h: 300 nmol/kg s.c. once, light phase 0-6 h, modified protocol (food access re-opened 2 h after dosing)
Experimental: Normal chow-fed C57BL/6J male mice were used. The mice were kept in an automated food- and water-intake monitoring system (HM-2) which allows automated on-line measurements of accumulated food intake (FI) and other parameters. Food intake was monitored by the HM-2 system up to 24 h after dosing. The mice were kept 6 per cage, and each dosing group consisted of 6 animals.
In the initial experimental set-up with ghrelin as test compound, animals were allowed free access to food directly after treatment, and the resulting data for food intake are shown in FIG. 1A herein (vide infra).
In order to further investigate the “duration of action” of ghrelin and the other test compounds a new protocol was defined. In the modified protocol the gate to the food chambers was closed prior to dosing with vehicle or test compound and was re-opened 2 hours thereafter. The resulting data for food intake following dosing with ghrelin or vehicle are summarized in FIG. 1B (vide infra), while the corresponding data for food intake following dosing with each of the of the other four test compounds. (Compound 16, 22, 23 or 43 of the invention) or with vehicle are summarized in FIG. 2A (data for monitoring up to 6 hours after dosing) and FIG. 2B (data for monitoring up to 24 hours after dosing).

[2] = molecular target: human growth hormone secretagogue receptor type 1a (human, UniProt Q92847 1-366); assay: cell-based or functional assay
human growth hormone secretagogue receptor type 1a, sequence (Q92847 whole entry): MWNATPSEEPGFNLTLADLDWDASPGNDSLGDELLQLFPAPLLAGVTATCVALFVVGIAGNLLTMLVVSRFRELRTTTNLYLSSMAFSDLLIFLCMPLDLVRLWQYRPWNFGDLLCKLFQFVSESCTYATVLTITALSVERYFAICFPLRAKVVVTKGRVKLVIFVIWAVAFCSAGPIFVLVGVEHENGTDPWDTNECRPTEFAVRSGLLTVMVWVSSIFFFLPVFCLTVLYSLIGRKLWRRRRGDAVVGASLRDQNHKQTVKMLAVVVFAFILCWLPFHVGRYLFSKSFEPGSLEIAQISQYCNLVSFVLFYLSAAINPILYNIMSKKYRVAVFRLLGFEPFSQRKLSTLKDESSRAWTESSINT

Row | EC50 (nM); Ca2+ induction in HEK293 cells stably expressing the human ghrelin receptor [2] [nM] | Molecule | Accumulated FI at 6h [1] [g] | also measured
1 | – | CCCCCCCC(=O)NC[C@H](NC(=O)[C@H](CO)NC(=O)[C@@H]1CCCN1)C(=O)N[C@@H](Cc1ccccc1)C(=O)N[C@@H](CC(C)C)C(=O)N[C@@H](CO)C(=O)N1CCC[C@H]1C(=O)N[C@@H](CCC(=O)O)C(=O)N[C@@H](Cc1c[nH]cn1)C(=O)N[C@@H](CO)C(=O)N[C@@H](CCCNC(=N)N)C(=O)N[C@H](C(=O)N[C@@H](CO)C(=O)N[C@@H](CO)C(=O)N[C@@H](CCCNC(=N)N)C(=O)N[C@@H](CCCCN)C(=O)N[C@@H](CCC(=O)O)C(=O)N[C@@H](CO)C(=O)N[C@@H](CCCCN)C(=O)N[C@@H](CCCCN)C(=O)N1CCC[C@H]1C(=O)N1CCC[C@H]1C(=O)N[C@@H](C)C(=O)N[C@@H](CCCCN)C(=O)N[C@@H](CC(C)C)C(=O)N[C@@H](CO)C(=O)N1CCC[C@H]1C(=O)N[C@@H](CCCNC(=N)N)C(N)=O)C(C)C [Compound 23] (H-PS[Dap](Octanoyl)FLSPEHSRVSSRKESKKPPAKLSPR-NH2) | – | Effects on FI in the 0-6 h light period ([1]; 300 nmol/kg s.c., modified protocol (FIG. 2A)): moderate effects; Effects on FI during the dark period ([1]; 300 nmol/kg s.c., modified protocol, 0-24 h monitoring (FIG. 2B)): significant effects
2 | – | CCCCCCCCOC[C@H](NC(=O)[C@H](CO)NC(=O)[C@@H]1CCCN1)C(=O)N[C@@H](Cc1ccccc1)C(=O)N[C@@H](CC(C)C)C(=O)N[C@@H](CO)C(=O)N1CCC[C@H]1C(=O)N[C@@H](CCC(=O)O)C(=O)N[C@@H](Cc1c[nH]cn1)C(=O)N[C@@H](CO)C(=O)N[C@@H](CCCNC(=N)N)C(=O)N1CCC[C@H]1C(=O)N[C@@H](CO)C(=O)N[C@@H](CO)C(=O)N[C@@H](CCCNC(=N)N)C(=O)N1CCC[C@H]1C(=O)N[C@@H](CCC(=O)O)C(=O)N[C@@H](CO)C(=O)N[C@@H](CO)C(=O)N[C@@H](CO)C(=O)N1CCC[C@H]1C(=O)N1CCC[C@H]1C(=O)N[C@@H](C)C(=O)N[C@@H](CCCCN)C(=O)N[C@@H](CC(C)C)C(=O)N[C@@H](CO)C(=O)N1CCC[C@H]1C(=O)N[C@@H](CCCNC(=N)N)C(N)=O [Compound 50] (H-PSS(Octyl)FLSPEHSRPSSRPESSSPPAKLSPR-NH2) | 0.19 ± 0.05 | –
3 | – | CCCCCCCCOC[C@H](NC(=O)[C@H](CO)NC(=O)[C@@H]1CCCN1)C(=O)N[C@@H](Cc1ccccc1)C(=O)N[C@@H](CC(C)C)C(=O)N[C@@H](CO)C(=O)N1CCC[C@H]1C(=O)N[C@@H](CCC(=O)O)C(=O)N[C@@H](Cc1c[nH]cn1)C(=O)N[C@@H](CO)C(=O)N[C@@H](CCCNC(=N)N)C(=O)N[C@H](C(=O)N[C@@H](CO)C(=O)N[C@@H](CO)C(=O)N[C@@H](CCCNC(=N)N)C(=O)N[C@@H](CCCCN)C(=O)N[C@@H](CCC(=O)O)C(=O)N[C@@H](CO)C(=O)N[C@@H](CO)C(=O)N[C@@H](CO)C(=O)N1CCC[C@H]1C(=O)N1CCC[C@H]1C(=O)N[C@@H](C)C(=O)N[C@@H](CCCCN)C(=O)N[C@@H](CC(C)C)C(=O)N[C@@H](CO)C(=O)N1CCC[C@H]1C(=O)N[C@@H](CCCNC(=N)N)C(N)=O)C(C)C [Compound 47] (H-PSS(Octyl)FLSPEHSRVSSRKESSSPPAKLSPR-NH2) | 1.55 ± 0.16 | –
4 | – | CCCCCCCCCCCCCCCC(=O)N[C@@H](CCC(=O)NCCCC[C@H](NC(=O)[C@H](CO)NC(=O)[C@H](CCC(=O)O)NC(=O)[C@H](CCCCN)NC(=O)[C@H](CCCNC(=N)N)NC(=O)[C@H](CCC(N)=O)NC(=O)[C@H](CCC(N)=O)NC(=O)[C@@H](NC(=O)[C@H](CCCNC(=N)N)NC(=O)[C@H](CCC(N)=O)NC(=O)[C@H](Cc1c[nH]cn1)NC(=O)[C@H](CCC(=O)O)NC(=O)[C@@H]1CCCN1C(=O)[C@H](CO)NC(=O)[C@H](CC(C)C)NC(=O)[C@H](Cc1ccccc1)NC(=O)[C@H](COCCCCCCCC)NC(=O)[C@H](CO)NC(=O)[C@@H]1CCCN1)C(C)C)C(=O)N[C@@H](CCCCN)C(=O)N1CCC[C@H]1C(=O)N1CCC[C@H]1C(=O)N[C@@H](C)C(=O)N[C@@H](CCCCN)C(=O)N[C@@H](CC(C)C)C(=O)N[C@@H](CCC(N)=O)C(=O)N1CCC[C@H]1C(=O)N[C@@H](CCCNC(=N)N)C(N)=O)C(=O)O [Compound 43] | 0.37 ± 0.14 | –
5 | 0.558 | H-[Cmp]S(Octanoyl)FLSPEHQRVQQRKESKKPPAKLQPR-OH (SMILES CCCCCCCC(=O)OC[C@H](NC(=O)CC1CCNCC1)C(=O)N[C@@H](Cc1ccccc1)C(=O)N[C@@H](CC(C)C)C(=O)N[C@@H](CO)C(=O)N1CCC[C@H]1C(=O)N[C@@H](CCC(=O)O)C(=O)N[C@@H](Cc1c[nH]cn1)C(=O)N[C@@H](CCC(N)=O)C(=O)N[C@@H](CCCNC(=N)N)C(=O)N[C@H](C(=O)N[C@@H](CCC(N)=O)C(=O)N[C@@H](CCC(N)=O)C(=O)N[C@@H](CCCNC(=N)N)C(=O)N[C@@H](CCCCN)C(=O)N[C@@H](CCC(=O)O)C(=O)N[C@@H](CO)C(=O)N[C@@H](CCCCN)C(=O)N[C@@H](CCCCN)C(=O)N1CCC[C@H]1C(=O)N1CCC[C@H]1C(=O)N[C@@H](C)C(=O)N[C@@H](CCCCN)C(=O)N[C@@H](CC(C)C)C(=O)N[C@@H](CCC(N)=O)C(=O)N1CCC[C@H]1C(=O)N[C@@H](CCCNC(=N)N)C(=O)O)C(C)C) [H-Cmp-S(O-octanoyl)-FLSPEHQRVQQRKESKKPPAKLQPR-OH] | – | –
6 | 0.385 | H-SSS(Octanoyl)FLSPEHQRVQQRKESKKPPAKLQPR-OH (SMILES CCCCCCCC(=O)OC[C@H](NC(=O)[C@H](CO)NC(=O)[C@@H](N)CO)C(=O)N[C@@H](Cc1ccccc1)C(=O)N[C@@H](CC(C)C)C(=O)N[C@@H](CO)C(=O)N1CCC[C@H]1C(=O)N[C@@H](CCC(=O)O)C(=O)N[C@@H](Cc1c[nH]cn1)C(=O)N[C@@H](CCC(N)=O)C(=O)N[C@@H](CCCNC(=N)N)C(=O)N[C@H](C(=O)N[C@@H](CCC(N)=O)C(=O)N[C@@H](CCC(N)=O)C(=O)N[C@@H](CCCNC(=N)N)C(=O)N[C@@H](CCCCN)C(=O)N[C@@H](CCC(=O)O)C(=O)N[C@@H](CO)C(=O)N[C@@H](CCCCN)C(=O)N[C@@H](CCCCN)C(=O)N1CCC[C@H]1C(=O)N1CCC[C@H]1C(=O)N[C@@H](C)C(=O)N[C@@H](CCCCN)C(=O)N[C@@H](CC(C)C)C(=O)N[C@@H](CCC(N)=O)C(=O)N1CCC[C@H]1C(=O)N[C@@H](CCCNC(=N)N)C(=O)O)C(C)C) [H-SS-S(O-octanoyl)-FLSPEHQRVQQRKESKKPPAKLQPR-OH] | – | –
7 | 0.48 | H-PSS(Octyl)FLSPEHSRVSSRKESKKPPAKLSPR-NH2 (SMILES CCCCCCCCOC[C@H](NC(=O)[C@H](CO)NC(=O)[C@@H]1CCCN1)C(=O)N[C@@H](Cc1ccccc1)C(=O)N[C@@H](CC(C)C)C(=O)N[C@@H](CO)C(=O)N1CCC[C@H]1C(=O)N[C@@H](CCC(=O)O)C(=O)N[C@@H](Cc1c[nH]cn1)C(=O)N[C@@H](CO)C(=O)N[C@@H](CCCNC(=N)N)C(=O)N[C@H](C(=O)N[C@@H](CO)C(=O)N[C@@H](CO)C(=O)N[C@@H](CCCNC(=N)N)C(=O)N[C@@H](CCCCN)C(=O)N[C@@H](CCC(=O)O)C(=O)N[C@@H](CO)C(=O)N[C@@H](CCCCN)C(=O)N[C@@H](CCCCN)C(=O)N1CCC[C@H]1C(=O)N1CCC[C@H]1C(=O)N[C@@H](C)C(=O)N[C@@H](CCCCN)C(=O)N[C@@H](CC(C)C)C(=O)N[C@@H](CO)C(=O)N1CCC[C@H]1C(=O)N[C@@H](CCCNC(=N)N)C(N)=O)C(C)C) [H-PS-S(O-octyl)-FLSPEHSRVSSRKESKKPPAKLSPR-NH2] | – | –
